Among the data in patent US20240092761A1, “QUINAZOLINE COMPOUNDS AND METHODS OF USE” (IAMBIC THERAPEUTICS, INC., priority 2022, published 2024) are IC50 values, retold here.

The structures appear in SMILES notation. A value given as a limit tells only on which side of the number the result lay.

The target in one experiment is CDK1/Cyclin B1 (Homo sapiens (Human), UniProt P06493). Put plainly: CDK1/Cyclin B1 ADP-Glo Kinase Assay. It counts as biochemical. The note with it: 80 uM ATP. In a few lines:
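CDK1/cyclin B1 (4.917 nM) preincubated 30 min with inhibitor (2% DMSO), then 80 µM ATP (Km 78.6 µM) and 0.75 µM substrate added; 90 min, room temperature, pH 7.5. ADP measured by ADP-Glo luminescence; IC50 from 4-parameter fit.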

In experiment [1] the target is CDK2/Cyclin E1 full length (Homo sapiens (Human), UniProt P24941). Nature of the experiment: CDK2/Cyclin E1 Full Length ADP-Glo Kinase Assay. It counts as biochemical. The note with it: 20 uM ATP, read-out: CDK2/ CyclinE1 IC50. In a few lines:
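Full-length human CDK2/Cyclin E1 (0.328 nM) pre-incubated 30 min with inhibitor at RT, then reacted 90 min at RT with 20 uM ATP (Km 64.78 uM) and 0.75 uM substrate in pH 7.5 HEPES, 2% DMSO. ADP measured by ADP-Glo luminescence; IC50 from 4-parameter fit of fractional velocity.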
(ADP-Glo turns the ADP formed in a reaction into a luminescent signal.)

A further experiment deals with CDK4/Cyclin D1 (Homo sapiens (Human), UniProt P11802). Nature of the experiment: CDK4/Cyclin D1 CHEF Assay (AQT0258 peptide). The note with it: 200 uM ATP, read-out: CDK4/ CyclinD1 AQT IC50. It counts as biochemical. The method in brief:
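CDK4/Cyclin D1 (2.5 nM) phosphorylating 10 uM Sox-labelled peptide AQT0258 with 200 uM ATP (Km 195.2 uM), 10 mM MgCl2, 2% DMSO, 54 mM HEPES pH 7.5. Enzyme and inhibitor pre-incubated 30 min, reaction 3 hrs at 22° C.; CHEF fluorescence (ex 360/em 485 nm), IC50 from fractional velocity, 4-parameter fit.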

A further experiment deals with CDK6/Cyclin D3 (Homo sapiens (Human), UniProt Q00534). Put plainly: CDK6/Cyclin D3 ADP-Glo Kinase Assay. It counts as biochemical. To be noted: 100 uM ATP, read-out: CDK6/ CyclinD3 IC50. The method in brief:
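Recombinant human CDK6/Cyclin D3 pre-incubated 30 min with inhibitor at room temperature, then reaction started with ATP/substrate and run 90 min at room temperature. ADP formed detected by ADP-Glo luminescence; IC50 from a 4-parameter fit of fractional velocity versus inhibitor concentration.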

Another experiment relates to MCF-7 cells. Put plainly: Cell Growth Inhibition, MCF-7 (CellTiterGlo, 6 days). It counts as cell-based. To be noted: MCF-7, 6-day treatment, CellTiterGlo 2.0. The method in brief: (§1)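 MCF-7 and OVCAR-3 cells (RPMI, 10% FBS) were seeded at 500 cells/well onto compound, typically 10–10,000 nM in half-log dilutions. Growth proceeded 6 days at 37 °C, then CellTiterGlo luminescence was read. % inhibition was taken versus control, and IC50 came from a four-parameter variable-slope fit.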
In general terms: Cellular ATP, detected with luciferase, serves as a proxy for viable cell number.

The subject of the next experiment is OVCAR-3 cells. Put plainly: Cell Growth Inhibition, OVCAR-3 (CellTiterGlo, 6 days). It counts as cell-based. To be noted: OVCAR-3, 6-day treatment, CellTiterGlo 2.0. The method in brief:
as §1

Chain of CDK4/Cyclin D1 (P11802 whole entry): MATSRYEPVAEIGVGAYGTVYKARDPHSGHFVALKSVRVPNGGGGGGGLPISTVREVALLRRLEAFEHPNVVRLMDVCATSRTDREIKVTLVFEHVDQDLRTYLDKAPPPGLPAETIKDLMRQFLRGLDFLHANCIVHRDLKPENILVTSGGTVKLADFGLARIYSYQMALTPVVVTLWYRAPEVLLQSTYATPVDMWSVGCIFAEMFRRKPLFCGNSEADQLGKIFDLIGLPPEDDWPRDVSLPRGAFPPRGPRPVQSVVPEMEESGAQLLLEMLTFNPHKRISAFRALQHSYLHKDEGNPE
Chain of CDK4/Cyclin D1 (P24385 whole entry partner): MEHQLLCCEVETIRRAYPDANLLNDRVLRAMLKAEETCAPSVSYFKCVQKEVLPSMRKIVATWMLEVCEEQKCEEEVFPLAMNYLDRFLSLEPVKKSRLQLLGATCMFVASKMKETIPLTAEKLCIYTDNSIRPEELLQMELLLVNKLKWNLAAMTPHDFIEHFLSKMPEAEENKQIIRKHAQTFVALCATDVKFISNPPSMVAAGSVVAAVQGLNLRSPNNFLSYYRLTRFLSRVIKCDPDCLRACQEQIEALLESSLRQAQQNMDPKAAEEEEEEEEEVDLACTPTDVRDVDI
Chain of CDK6/Cyclin D3 (Q00534 whole entry): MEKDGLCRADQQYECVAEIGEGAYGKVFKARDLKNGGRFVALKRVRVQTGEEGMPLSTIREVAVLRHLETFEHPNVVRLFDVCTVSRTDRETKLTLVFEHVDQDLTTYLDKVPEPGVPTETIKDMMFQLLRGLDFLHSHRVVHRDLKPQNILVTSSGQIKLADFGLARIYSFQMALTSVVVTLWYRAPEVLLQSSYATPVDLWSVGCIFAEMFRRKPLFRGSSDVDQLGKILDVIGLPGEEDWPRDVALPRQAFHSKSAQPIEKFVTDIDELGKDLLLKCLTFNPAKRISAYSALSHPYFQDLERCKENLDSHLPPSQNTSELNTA
Chain of CDK6/Cyclin D3 (P30281 whole entry partner): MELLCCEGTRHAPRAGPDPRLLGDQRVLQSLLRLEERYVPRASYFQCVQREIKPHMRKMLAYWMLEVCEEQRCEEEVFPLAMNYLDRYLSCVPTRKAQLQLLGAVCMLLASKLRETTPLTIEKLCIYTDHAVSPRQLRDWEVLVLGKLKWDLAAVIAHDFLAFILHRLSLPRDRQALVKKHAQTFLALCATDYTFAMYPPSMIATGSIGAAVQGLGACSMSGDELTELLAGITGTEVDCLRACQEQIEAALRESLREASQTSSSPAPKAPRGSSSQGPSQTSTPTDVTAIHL
Chain of CDK1/Cyclin B1 (P06493 whole entry): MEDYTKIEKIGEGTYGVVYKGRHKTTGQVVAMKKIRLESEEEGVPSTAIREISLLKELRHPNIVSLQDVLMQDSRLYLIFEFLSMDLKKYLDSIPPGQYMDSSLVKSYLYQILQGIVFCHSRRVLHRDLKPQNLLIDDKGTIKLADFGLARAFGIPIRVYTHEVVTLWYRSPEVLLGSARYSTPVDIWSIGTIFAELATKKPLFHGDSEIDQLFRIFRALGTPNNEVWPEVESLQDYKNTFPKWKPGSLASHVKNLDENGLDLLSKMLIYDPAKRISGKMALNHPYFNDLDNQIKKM
Chain of CDK1/Cyclin B1 (P14635 whole entry partner): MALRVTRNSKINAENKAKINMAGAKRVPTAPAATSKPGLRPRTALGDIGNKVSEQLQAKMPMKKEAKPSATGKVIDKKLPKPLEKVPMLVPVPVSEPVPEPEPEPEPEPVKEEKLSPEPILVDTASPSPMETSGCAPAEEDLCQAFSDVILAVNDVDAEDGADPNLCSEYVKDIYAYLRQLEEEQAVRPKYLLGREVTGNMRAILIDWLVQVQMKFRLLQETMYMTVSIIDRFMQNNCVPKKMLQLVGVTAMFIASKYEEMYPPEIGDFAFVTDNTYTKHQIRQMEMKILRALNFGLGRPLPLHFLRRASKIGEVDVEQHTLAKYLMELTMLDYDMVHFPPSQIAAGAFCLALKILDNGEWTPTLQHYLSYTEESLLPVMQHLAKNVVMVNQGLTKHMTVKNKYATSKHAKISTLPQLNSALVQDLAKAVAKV

Turning to `O=S(=O)(C1CC1)N1CCC(Nc2ncc3cc(C(F)F)cc(C4CC5(C4)CN(CC(F)F)C5)c3n2)CC1` [Example 90, N-(1-(cyclopropylsulfonyl)piperidin-4-yl)-8-(2-(2,2-difluoroethyl)-2-azaspiro[3.3]heptan-6-yl)-6-(difluoromethyl)quinazolin-2-amine], the IC50 was under 200 nM against CDK1/Cyclin B1; under 200 nM in experiment [1]; under 200 nM at CDK4/Cyclin D1; under 200 nM on CDK6/Cyclin D3; 500 to 2000 nM in the experiment on MCF-7 cells (Homo sapiens, MCF7, 144 h); 200 to 500 nM in the experiment on OVCAR-3 cells (Homo sapiens, 144 h).

For `CS(=O)(=O)N1CCC(Nc2ncc3cc(C(F)(F)F)cc(N4CC5(CNCC5(F)F)C4)c3n2)CC1` [Example 116, 8-(8,8-difluoro-2,6-diazaspiro[3.4]octan-2-yl)-N-(1-(methylsulfonyl)piperidin-4-yl)-6-(trifluoromethyl)quinazolin-2-amine], the IC50 on CDK1/Cyclin B1 was 500 to 2000 nM; in experiment [1], under 200 nM; at CDK4/Cyclin D1, under 200 nM; on CDK6/Cyclin D3 it was under 200 nM; in the experiment on MCF-7 cells (Homo sapiens, MCF7, 144 h), 500 to 2000 nM; in the experiment with OVCAR-3 cells (Homo sapiens, 144 h), over 2000 nM.

For `CN1Cc2ccc(Nc3ncc4cc(C(F)F)cc(N5CC6(CN(C)C6)C5)c4n3)cc2C1` [Example 57, 6-(difluoromethyl)-8-(6-methyl-2,6-diazaspiro[3.3]heptan-2-yl)-N-(2-methylisoindolin-5-yl)quinazolin-2-amine], the IC50 at CDK1/Cyclin B1 was over 2000 nM; in experiment [1], under 200 nM; on CDK4/Cyclin D1, under 200 nM; at CDK6/Cyclin D3 it was under 200 nM; in the experiment with MCF-7 cells (Homo sapiens, MCF7, 144 h) it was 500 to 2000 nM; in the experiment with OVCAR-3 cells (Homo sapiens, 144 h) it was 500 to 2000 nM.

`O=S(=O)(N1CCC(Nc2ncc3cc(C(F)F)cc(N4CC5(CCNC5)C4)c3n2)CC1)C1(C(F)F)CC1` [Example 93, 6-(difluoromethyl)-N-(1-((1-(difluoromethyl)cyclopropyl)sulfonyl)piperidin-4-yl)-8-(2,6-diazaspiro[3.4]octan-2-yl)quinazolin-2-amine]: the IC50 against CDK1/Cyclin B1 was under 200 nM; in experiment [1], under 200 nM; at CDK4/Cyclin D1 it was under 200 nM; at CDK6/Cyclin D3, under 200 nM; with MCF-7 cells (Homo sapiens, MCF7, 144 h), 200 to 500 nM; in the experiment with OVCAR-3 cells (Homo sapiens, 144 h) it was under 200 nM.

Turning to `FC(F)c1cc(N2CC3(CCNC3)C2)c2nc(NC3CCN(c4ncc(C5CC5)cn4)CC3)ncc2c1` [Example 68, N-(1-(5-cyclopropylpyrimidin-2-yl)piperidin-4-yl)-6-(difluoromethyl)-8-(2,6-diazaspiro[3.4]octan-2-yl)quinazolin-2-amine], the IC50 was under 200 nM at CDK1/Cyclin B1; under 200 nM in experiment [1]; under 200 nM at CDK4/Cyclin D1; 200 to 500 nM at CDK6/Cyclin D3; 500 to 2000 nM in the experiment with MCF-7 cells (Homo sapiens, MCF7, 144 h); 500 to 2000 nM in the experiment on OVCAR-3 cells (Homo sapiens, 144 h).

In the case of `CN1CC(n2cc(Nc3ncc4cc(C(F)F)cc(N5CC6(CN(C)C6)C5)c4n3)cn2)C1` [Example 59, 6-(difluoromethyl)-8-(6-6-methyl-2,6-diazaspiro[3.3]heptan-2-yl)-N-(1-(1-methylazetidin-3-yl)-1H-pyrazol-4-yl)quinazolin-2-amine], the IC50 at CDK1/Cyclin B1 was over 2000 nM; in experiment [1], 500 to 2000 nM; at CDK4/Cyclin D1 it was 200 to 500 nM; on CDK6/Cyclin D3, 500 to 2000 nM; with MCF-7 cells, over 2000 nM; in the experiment on OVCAR-3 cells it was over 2000 nM.

Regarding `CC1(CCS(=O)(=O)N2CCC(Nc3ncc4cc(C(F)F)cc(N5CC6(CCNC6)C5)c4n3)CC2)CC1` [Example 96, 6-(difluoromethyl)-N-(1-((2-(1-methylcyclopropyl)ethyl)sulfonyl)piperidin-4-yl)-8-(2,6-diazaspiro[3.4]octan-2-yl)quinazolin-2-amine], the IC50 was under 200 nM against CDK1/Cyclin B1; under 200 nM in experiment [1]; under 200 nM on CDK4/Cyclin D1; under 200 nM on CDK6/Cyclin D3; 500 to 2000 nM in the experiment with MCF-7 cells (Homo sapiens, MCF7, 144 h); 500 to 2000 nM with OVCAR-3 cells (Homo sapiens, 144 h).

With `CS(=O)(=O)N1CCC(Nc2ncc3cccc(C4CC(O)(C(F)F)C4)c3n2)CC1` (stereo not drawn) [Example 120, 1-(difluoromethyl)-3-(2-((1-(methylsulfonyl)piperidin-4-yl)amino)quinazolin-8-yl)cyclobutan-1-ol], the IC50 at CDK1/Cyclin B1 was under 200 nM; in experiment [1], under 200 nM; on CDK4/Cyclin D1, under 200 nM; on CDK6/Cyclin D3, under 200 nM; in the experiment on MCF-7 cells (Homo sapiens, MCF7, 144 h), 500 to 2000 nM; in the experiment on OVCAR-3 cells (Homo sapiens, 144 h), 200 to 500 nM.

With `CN1CC2(CCN(c3cc(C(F)F)cc4cnc(NC5CCN(S(=O)(=O)C6CC6)CC5)nc34)C2)C1` [Example 77, N-(1-(cyclopropylsulfonyl)piperidin-4-yl)-6-(difluoromethyl)-8-(2-methyl-2,6-diazaspiro[3.4]octan-6-yl)quinazolin-2-amine], the IC50 at CDK1/Cyclin B1 is under 200 nM; in experiment [1], under 200 nM; on CDK4/Cyclin D1, under 200 nM; at CDK6/Cyclin D3, under 200 nM; in the experiment with MCF-7 cells (Homo sapiens, MCF7, 144 h), 200 to 500 nM; in the experiment with OVCAR-3 cells (Homo sapiens, 144 h) it was 500 to 2000 nM.

On to `O=S(=O)(C1CC1)N1CCC(Nc2ncc3cc(C(F)F)cc(N4CC5(CCCNC5)C4)c3n2)CC1` [Example 80, N-(1-(cyclopropylsulfonyl)piperidin-4-yl)-6-(difluoromethyl)-8-(2,6-diazaspiro[3.5]nonan-2-yl)quinazolin-2-amine], for which the IC50 is under 200 nM at CDK1/Cyclin B1; under 200 nM in experiment [1]; under 200 nM at CDK4/Cyclin D1; under 200 nM at CDK6/Cyclin D3; 200 to 500 nM in the experiment on MCF-7 cells (Homo sapiens, MCF7, 144 h); 200 to 500 nM in the experiment with OVCAR-3 cells (Homo sapiens, 144 h).

For `CN1Cc2ccc(Nc3ncc4cc(C(F)F)cc(N5CC6(C5)CN(S(C)(=O)=O)C6)c4n3)cc2C1` [Example 58, 6-(difluoromethyl)-N-(2-methylisoindolin-5-yl)-8-(6-(methylsulfonyl)-2,6-diazaspiro[3.3]heptan-2-yl)quinazolin-2-amine], the IC50 on CDK1/Cyclin B1 was 500 to 2000 nM; in experiment [1] it was under 200 nM; on CDK4/Cyclin D1, under 200 nM; on CDK6/Cyclin D3 it was under 200 nM; with MCF-7 cells (Homo sapiens, MCF7, 144 h), 500 to 2000 nM; in the experiment with OVCAR-3 cells (Homo sapiens, 144 h), 500 to 2000 nM.

Consider `O=S(=O)(C1CC1)N1CCC(Nc2ncc3cc(C(F)F)cc(N4CC5(CNCCO5)C4)c3n2)CC1` [Example 98, N-(1-(cyclopropylsulfonyl)piperidin-4-yl)-6-(difluoromethyl)-8-(5-oxa-2,8-diazaspiro[3.5]nonan-2-yl)quinazolin-2-amine], for which the IC50 on CDK1/Cyclin B1 was under 200 nM; in experiment [1], under 200 nM; at CDK4/Cyclin D1 it was under 200 nM; at CDK6/Cyclin D3 it was under 200 nM; in the experiment with MCF-7 cells (Homo sapiens, MCF7, 144 h), 200 to 500 nM; in the experiment with OVCAR-3 cells (Homo sapiens, 144 h) it was 500 to 2000 nM.

With `CN1CC2(CCN(c3cc(C(F)F)cc4cnc(NC5CCN(S(C)(=O)=O)CC5)nc34)C2)C1` [Example 62, 6-(difluoromethyl)-8-(2-methyl-2,6-diazaspiro[3.4]octan-6-yl)-N-(1-(methylsulfonyl)piperidin-4-yl)quinazolin-2-amine], the IC50 at CDK1/Cyclin B1 is 200 to 500 nM; in experiment [1], under 200 nM; on CDK4/Cyclin D1, under 200 nM; at CDK6/Cyclin D3 it was under 200 nM; with MCF-7 cells (Homo sapiens, MCF7, 144 h), under 200 nM; in the experiment on OVCAR-3 cells (Homo sapiens, 144 h), 500 to 2000 nM.

In the case of `COCCN1CC2(CC(c3cc(C(F)F)cc4cnc(NC5CCN(S(C)(=O)=O)CC5)nc34)C2)C1` [Example 89, 6-(difluoromethyl)-8-(2-(2-methoxyethyl)-2-azaspiro[3.3]heptan-6-yl)-N-(1-(methylsulfonyl)piperidin-4-yl)quinazolin-2-amine], the IC50 is under 200 nM on CDK1/Cyclin B1; under 200 nM in experiment [1]; under 200 nM on CDK4/Cyclin D1; under 200 nM at CDK6/Cyclin D3; 200 to 500 nM in the experiment with MCF-7 cells (Homo sapiens, MCF7, 144 h); under 200 nM in the experiment on OVCAR-3 cells (Homo sapiens, 144 h).
